Source: ChEMBL document CHEMBL1159293, “Additional bioactive acetogenins, annomutacin and (2,4-trans and cis)-10R-annonacin-A-ones, from the leaves of Annona muricata” (J Nat Prod, 1995)
Values after ≈ are worked out from the molar mass of the structure shown.

Key:
MCF7 = assay: Cytotoxicity against human MCF7 cells after 7 days by MTT assay; type: functional; settings: MCF7, 168 h, read-out: ED50 (the source's name)
[1] = (§1) Toxicity to brine shrimp; type: organism-based; settings: artemia, in vivo
A549 = assay: Cytotoxicity against human A549 cells after 7 days by MTT assay; type: functional; settings: A549, 168 h, read-out: ED50 (the source's name)
HT-29 = assay: Cytotoxicity against human HT-29 cells after 7 days by MTT assay; type: functional; settings: HT-29, 168 h, read-out: ED50 (the source's name)
Artemia = assay: as §1; type: organism-based; settings: in vivo

## CCCCCCCCCCCC[C@H](O)[C@H]1CC[C@H]([C@H](O)CCCC[C@H](O)CCCCC[C@@H]2C[C@H](CC(C)=O)C(=O)O2)O1
MCF7
  EC50: 0.57 µg/mL (≈ 0.955 µM)
[1]
  LC50: 0.112 µg/mL (≈ 0.188 µM)
A549
  EC50: 0.174 µg/mL (≈ 0.292 µM)
HT-29
  EC50: > 1 µg/mL

## COc1cccc2c1C(=O)c1c(O)c3c(c(O)c1C2=O)C[C@@](O)(C(=O)CO)C[C@@H]3O[C@H]1C[C@H](N)[C@H](O)[C@H](C)O1 [DOXORUBICIN]
[1]
  LC50: 0.313 µg/mL (≈ 0.576 µM)

## CCCCCCCCCCCC[C@H](O)[C@H]1CC[C@H]([C@H](O)CCCC[C@H](O)CCCCC[C@@H]2C[C@@H](CC(C)=O)C(=O)O2)O1
MCF7
  EC50: 0.57 µg/mL (≈ 0.955 µM)
[1]
  LC50: 0.112 µg/mL (≈ 0.188 µM)
A549
  EC50: 0.174 µg/mL (≈ 0.292 µM)
HT-29
  EC50: > 1 µg/mL

## CCCCCCCCCCCC[C@H](O)[C@@H]1CC[C@@H]([C@@H](O)CCCCCCC(O)CCCCC[C@@H](O)CC2=C[C@H](C)OC2=O)O1 (stereo partly drawn) [ANNOMONTACIN]
MCF7
  EC50: > 1 µg/mL
Artemia
  LC50: 3.91 ×10⁻² ug/ml
A549
  EC50: 0.0157 µg/mL (≈ 0.0251 µM)
HT-29
  EC50: > 1 µg/mL
